Reference: patent publication US20060069132A1, “Azolecarboxamide herbicides” (priority 2004, published 2006)

Experiments:
[1] = tested on: barnyardgrass; assay: Test B pre-/postemergence herbicide test; format: in vivo, Echinochloa crus-galli; settings: for Plant response rating (0 to 100 scale), Barnyardgrass: 0 is no effect, 100 is complete control, preemergence; for Barnyardgrass plant response rating: scale 0 (no effect) to 100 (complete control)
In short: (§1)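 Herbicidal effect was judged by eye on a 0–100 scale after plants stood 13 to 15 days in the greenhouse following pre- or postemergence treatment with surfactant-containing formulations.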

[2] = tested on: Surinam grass; assay: Test B pre-/postemergence herbicide test; format: in vivo, Urochloa decumbens; settings: for Plant response rating (0 to 100 scale), Surinam Grass: 0 is no effect, 100 is complete control, preemergence
In short: (§2)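 Seeds were planted and treated preemergence with compounds formulated in a non-phytotoxic solvent mixture containing surfactant, while plants at the 1- to 4-leaf stage (2 to 18 cm) received postemergence sprays. Flooded paddy plants were grown to the 2-leaf stage. After 13 to 15 days in a greenhouse, injury was visually rated 0–100 against untreated controls.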

[3] = tested on: cocklebur; assay: Test B pre-/postemergence herbicide test; format: in vivo, Xanthium strumarium; settings: for Plant response rating (0 to 100 scale), Cocklebur: 0 is no effect, 100 is complete control, preemergence
In short: as §1

[4] = tested on: corn; assay: Test B pre-/postemergence herbicide test; format: in vivo, Zea mays; settings: for Plant response rating (0 to 100 scale), Corn: 0 is no effect, 100 is complete control, preemergence
In short: as §2

[5] = tested on: large crabgrass; assay: Test B pre-/postemergence herbicide test; format: in vivo, Digitaria sanguinalis; settings: for Plant response rating (0 to 100 scale), Crabgrass, Large: 0 is no effect, 100 is complete control, preemergence
In short: as §2

[6] = tested on: giant foxtail; assay: Test B pre-/postemergence herbicide test; format: in vivo, Setaria faberi; settings: for Plant response rating (0 to 100 scale), Foxtail, Giant: 0 is no effect, 100 is complete control, preemergence
In short: as §2

[7] = tested on: lambsquarters; assay: Test B pre-/postemergence herbicide test; format: in vivo, Chenopodium album; settings: for Plant response rating (0 to 100 scale), Lambsquarters: 0 is no effect, 100 is complete control, preemergence
In short: as §2

[8] = tested on: morningglory; assay: Test B pre-/postemergence herbicide test; format: in vivo, Ipomoea coccinea; settings: for Plant response rating (0 to 100 scale), Morningglory: 0 is no effect, 100 is complete control, preemergence
In short: as §1

[9] = tested on: pigweed; assay: Test B pre-/postemergence herbicide test; format: in vivo, Amaranthus retroflexus; settings: for Plant response rating (0 to 100 scale), Pigweed: 0 is no effect, 100 is complete control, preemergence
In short: as §2

[10] = tested on: velvetleaf; assay: Test B pre-/postemergence herbicide test; format: in vivo, Abutilon theophrasti; settings: for Plant response rating (0 to 100 scale), Velvetleaf: 0 is no effect, 100 is complete control, preemergence
In short: as §2

[11] = tested on: blackgrass; assay: Test B postemergence herbicide test; format: in vivo, Alopecurus myosuroides
In short: (§3)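 Treated at 2-leaf (paddy) or 1–4-leaf, 2–18 cm (postemergence); greenhouse 13–15 d; visual score vs control, 0 none to 100 complete control; dash = not tested.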

[12] = tested on: wheat; assay: Test B postemergence herbicide test; format: in vivo, Triticum aestivum; set-up: key to Wheat plant response rating: 0 = no effect, 100 = complete control
In short: as §3

[13] = tested on: wild oat; assay: Test B postemergence herbicide test; format: in vivo, Avena fatua
In short: as §3

[14] = tested on: rice; assay: Test B flooded paddy test; format: in vivo, Oryza sativa; settings: 1000 g ai/ha, scale 0 to 100 (0 no effect, 100 complete control)
In short: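 Visual ratings, 0 (no effect) to 100 (complete control), made versus controls after 13–15 d greenhouse. Paddy plants treated at 2-leaf stage; postemergence plants at 1- to 4-leaf stage, 2–18 cm tall.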

[15] = tested on: small flower umbrella sedge; assay: Test B flooded paddy test; format: in vivo, Cyperus difformis; settings: 1000 g ai/ha, scale 0 to 100 (0 no effect, 100 complete control)
In short: as §3

[16] = tested on: ducksalad; assay: Test B flooded paddy test; format: in vivo, Heteranthera limosa; settings: 1000 g ai/ha, scale 0 to 100 (0 no effect, 100 complete control)
In short: as §3

[17] = tested on: barnyardgrass; assay: Test B flooded paddy test; format: in vivo, Echinochloa crus-galli; settings: 1000 g ai/ha, scale 0 to 100 (0 no effect, 100 complete control)
In short: as §3

[18] = 125 g ai/ha, visual rating, scale 0 (no effect) to 100 (complete control), postemergence
[19] = Postemergence, 500 g ai/ha, scale 0 (no effect) to 100 (complete control)
[20] = 500 g ai/ha, scale 0 to 100, 0 no effect, 100 complete control, preemergence
[21] = postemergence, 125 g ai/ha, scale 0 to 100

CCN(C)C(=O)c1ccc(F)c(NC(=O)c2nn(C(C)C)nc2C)c1 [Compound 403]
0: Plant response rating (0 to 100 scale), Barnyardgrass ([1]; 125 g ai/ha) | Barnyardgrass plant response rating ([1]; 125 g ai/ha, visual rating, postemergence) | Barnyardgrass plant response rating ([1]; Postemergence, 500 g ai/ha) | Plant response rating (0 to 100 scale), Surinam Grass ([2]; 125 g ai/ha) | Surinam Grass plant response rating [2, 18] | Plant response rating (0 to 100 scale), Cocklebur ([3]; 125 g ai/ha) | Cocklebur plant response rating [3, 18] | Cocklebur plant response rating [3, 19] | Plant response rating (0 to 100 scale), Corn ([4]; 125 g ai/ha) | Corn plant response rating [4, 18] | Corn plant response rating [4, 19] | Plant response rating (0 to 100 scale), Crabgrass, Large ([5]; 125 g ai/ha) | Crabgrass, Large plant response rating [5, 18] | Crabgrass, Large plant response rating [5, 19] | Plant response rating (0 to 100 scale), Foxtail, Giant ([6]; 125 g ai/ha) | Foxtail, Giant plant response rating [6, 18] | Foxtail, Giant plant response rating [6, 19] | Plant response rating (0 to 100 scale), Lambsquarters ([7]; 125 g ai/ha) | Lambsquarters plant response rating [7, 18] | Plant response rating (0 to 100 scale), Morningglory ([8]; 125 g ai/ha) | Morningglory plant response rating [8, 18] | Morningglory plant response rating [8, 19] | Plant response rating (0 to 100 scale), Pigweed ([9]; 125 g ai/ha) | Pigweed plant response rating [9, 18] | Pigweed plant response rating [9, 19] | Plant response rating (0 to 100 scale), Velvetleaf ([10]; 125 g ai/ha) | Velvetleaf plant response rating [10, 18] | Blackgrass plant response rating [11, 18] | Blackgrass plant response rating [11, 19] | Wheat plant response rating [12, 18] | Wheat plant response rating [12, 20] | Wheat plant response rating [12, 19] | Oat, Wild plant response rating [13, 18] | Oat, Wild plant response rating [13, 19] | Rice plant response rating [14] | Ducksalad plant response rating [16] | Barnyardgrass plant response rating [17]
10: Surinam Grass plant response rating [2, 19] | Lambsquarters plant response rating [7, 19] | Velvetleaf plant response rating [10, 19] | Sedge, Umbrella plant response rating [15]

CCNC(=O)c1ccnc(NC(=O)c2nn(C(C)(C)C)nc2C)c1 [Compound 424]
50: Blackgrass plant response rating [11, 19] | Wheat plant response rating [12, 20]
20: Plant response rating (0 to 100 scale), Barnyardgrass ([1]; 125 g ai/ha) | Surinam Grass plant response rating [2, 21] | Cocklebur plant response rating [3, 21] | Plant response rating (0 to 100 scale), Foxtail, Giant ([6]; 125 g ai/ha) | Foxtail, Giant plant response rating [6, 21] | Plant response rating (0 to 100 scale), Velvetleaf ([10]; 125 g ai/ha) | Rice plant response rating [14]
0: Plant response rating (0 to 100 scale), Cocklebur ([3]; 125 g ai/ha) | Plant response rating (0 to 100 scale), Corn ([4]; 125 g ai/ha) | Corn plant response rating [4, 21] | Blackgrass plant response rating [11, 21] | Wheat plant response rating [12, 19] | Wheat plant response rating [12, 21] | Oat, Wild plant response rating [13, 19] | Oat, Wild plant response rating [13, 21]
30: Barnyardgrass plant response rating ([1]; Postemergence, 500 g ai/ha) | Plant response rating (0 to 100 scale), Surinam Grass ([2]; 125 g ai/ha) | Surinam Grass plant response rating [2, 19] | Cocklebur plant response rating [3, 19] | Crabgrass, Large plant response rating [5, 19] | Foxtail, Giant plant response rating [6, 19] | Morningglory plant response rating [8, 21] | Pigweed plant response rating [9, 21] | Velvetleaf plant response rating [10, 19] | Velvetleaf plant response rating [10, 21]
10: Barnyardgrass plant response rating ([1]; Postemergence, 125 g ai/ha) | Corn plant response rating [4, 19] | Crabgrass, Large plant response rating [5, 21] | Plant response rating (0 to 100 scale), Morningglory ([8]; 125 g ai/ha)
60: Pigweed plant response rating [9, 19]
90: Plant response rating (0 to 100 scale), Crabgrass, Large ([5]; 125 g ai/ha) | Plant response rating (0 to 100 scale), Pigweed ([9]; 125 g ai/ha)
40: Lambsquarters plant response rating [7, 21] | Barnyardgrass plant response rating [17]
70: Plant response rating (0 to 100 scale), Lambsquarters ([7]; 125 g ai/ha) | Lambsquarters plant response rating [7, 19] | Morningglory plant response rating [8, 19] | Sedge, Umbrella plant response rating [15] | Ducksalad plant response rating [16]
